This passage reports MIC and HC50 results from ChEMBL document CHEMBL4376803, “Recent Advances in the Exploration of Therapeutic Analogues of Gramicidin S, an Old but Still Potent Antimicrobial Peptide” (J Med Chem, 2019).

Each structure is given as a SMILES string. Converted amounts (≈) assume the structure as drawn. Where only a bound is given, the exact number is not on record here.

Data set [1] deals with Escherichia coli. The experiment in a line: Antibacterial activity against Escherichia coli ATCC 25922 after overnight incubation. The format is functional.
Data set [2] concerns Staphylococcus aureus. Kind of data set: Antibacterial activity against Staphylococcus aureus ATCC 29213 after overnight incubation. The format is functional.
Data set [3] deals with Enterococcus faecalis. Kind of data set: Antibacterial activity against Enterococcus faecalis ATCC 29212 after overnight incubation. The format is functional.
Data set [4] relates to Staphylococcus aureus. Kind of data set: Antibacterial activity against Staphylococcus aureus 7323. The format is functional.
The test system of data set [5] is Pseudomonas aeruginosa. The experiment in a line: Antibacterial activity against Pseudomonas aeruginosa ATCC 19582 after 24 hrs by broth dilution method. The format is functional. To be noted: ATCC 19582, 24 h. (Dilution methods test growth across graded concentrations, often in twofold steps.)
Data set [6] can be described thus: Hemolytic activity against RBC (unknown origin) at 100 ul after 4 hrs. The format is ADME, cell-based, Erythrocyte. To be noted: red blood cells (unknown origin).
The test system of data set [7] is Enterococcus faecalis. Kind of data set: Antibacterial activity against Enterococcus faecalis 1131 after 24 hrs by broth dilution method. The format is functional. As to conditions: Enterococcus faecalis, 1131, 24 h.
The subject of data set [8] is Escherichia coli. Kind of data set: Antibacterial activity against Escherichia coli ATCC 25922 after 24 hrs by broth dilution method. The format is functional. To be noted: ATCC 25922, 24 h.
Data set [9] can be described thus: Haemolytic activity in human erythrocytes incubated for 30 mins. The format is ADME, cell-based, Erythrocyte.
For data set [10], the system named is Staphylococcus aureus. Kind of data set: Antibacterial activity against Staphylococcus aureus 209P incubated for 20 hrs by liquid microdilution method. The format is functional.
The test system of data set [11] is Escherichia coli. The experiment in a line: Antibacterial activity against Escherichia coli K-12 strain W3110 incubated for 20 hrs by liquid microdilution method. As to conditions: K-12 substr. W3110, 20 h. The format is functional.
Data set [12] is described as follows: Hemolytic activity in sheep RBC incubated for 30 mins. The format is ADME, cell-based, Ovis aries, Erythrocyte. To be noted: sheep red blood cells.
Data set [13] deals with Staphylococcus aureus. The experiment in a line: Antibacterial activity against Staphylococcus aureus NBRC 12732 after overnight incubation by microplate dilution method. The format is functional.
The subject of a further data set is Bacillus subtilis. Kind of data set: Antibacterial activity against Bacillus subtilis NBRC 3513 after overnight incubation by microplate dilution method. The format is functional.
The subject of data set [14] is Escherichia coli. Kind of data set: Antibacterial activity against Escherichia coli NBRC 12734 after overnight incubation by microplate dilution method. The format is functional.
In the next data set the test system is Priestia megaterium. Kind of data set: Antibacterial activity against Bacillus megaterium ATCC 19213 after overnight incubation by microplate dilution method. The format is functional.
In data set [15] the test system is Pseudomonas aeruginosa. The experiment in a line: Antibacterial activity against Pseudomonas aeruginosa NBRC 3080 after overnight incubation by microplate dilution method. The format is functional.

In general, MIC refers to the smallest concentration in the dilution series that meets the test's criterion for growth inhibition. With `CC(C)C[C@@H]1NC(=O)[C@H](CCCN)NC(=O)[C@H](C(C)C)NC(=O)[C@@H]2CCCN2C(=O)[C@@H](Cc2ccc(O)cc2)NC(=O)[C@H](CC(C)C)NC(=O)[C@@H](CCCN)NC(=O)[C@H](C(C)C)NC(=O)[C@@H]2CCCN2C(=O)[C@@H](Cc2ccc(O)cc2)NC1=O`, the MIC in the data set on Escherichia coli [1] turned out to be 64 µg/mL (≈ 54.5 µM); in the data set with Staphylococcus aureus [2], 32 µg/mL (≈ 27.3 µM); in the data set on Enterococcus faecalis [3] it was 32 µg/mL (≈ 27.3 µM).

In general, HC50 refers to the concentration that lyses half of the red blood cells. A high value points to less damage to red cells. As for `CC(C)C[C@@H]1NC(=O)[C@H](CCCN)NC(=O)[C@H](C(C)C)NC(=O)[C@@H]2CCCN2C(=O)[C@@H](Cc2cn(Cc3cccc4ccccc34)nn2)NC(=O)[C@H](CC(C)C)NC(=O)[C@@H](CCCN)NC(=O)[C@H](C(C)C)NC(=O)[C@@H]2CCCN2C(=O)[C@@H](Cc2ccccc2)NC1=O`, the MIC against Staphylococcus aureus [4] is 4 µg/mL (≈ 3.14 µM); with Pseudomonas aeruginosa [5], greater than 64 µg/mL; in the data set on Enterococcus faecalis [7], 4 µg/mL (≈ 3.14 µM); in the data set with Escherichia coli [8], 64 µg/mL (≈ 50.3 µM). Further, in data set [6], the HC50 at 4 h lay in the range of 5 to 10 µg/mL.

Take `CC(C)C[C@@H]1NC(=O)[C@H](CCCN)NC(=O)[C@H](C(C)C)NC(=O)[C@@H]2CCCN2C(=O)[C@@H](Cc2c[nH]nn2)NC(=O)[C@H](CC(C)C)NC(=O)[C@@H](CCCN)NC(=O)[C@H](C(C)C)NC(=O)[C@@H]2CCCN2C(=O)[C@@H](Cc2ccccc2)NC1=O`: the MIC is 16 µg/mL (≈ 14.1 µM) in the data set on Staphylococcus aureus [4], greater than 64 µg/mL against Pseudomonas aeruginosa [5], 64 µg/mL (≈ 56.5 µM) against Enterococcus faecalis [7] and 32 µg/mL (≈ 28.3 µM) in the data set with Escherichia coli [8]. The compound further yielded a concentration for 50% haemolysis (HC50) at 4 h in data set [6] of 45 to 55 µg/mL.

On to `CC(C)C[C@@H]1NC(=O)[C@H](CCCN)NC(=O)[C@H](C(C)C)NC(=O)[C@@H]2C[C@@H](N)CN2C(=O)[C@@H](Cc2ccccc2)NC(=O)[C@H](CC(C)C)NC(=O)[C@H](CCCN)NC(=O)[C@H](C(C)C)NC(=O)[C@@H]2C[C@@H](N)CN2C(=O)[C@@H](Cc2ccccc2)NC1=O` [listing 1 of 2 here], for which the 50% haemolytic concentration (HC50) at 0.5 h in data set [9] was in the range of 50 to 100 µg/mL.

On to `CC(C)C[C@@H]1NC(=O)[C@H](CCCN)NC(=O)[C@H](C(C)C)NC(=O)[C@@H]2C[C@@H](N)CN2C(=O)[C@@H](Cc2ccccc2)NC(=O)[C@H](CC(C)C)NC(=O)[C@H](CCCN)NC(=O)[C@H](C(C)C)NC(=O)[C@@H]2C[C@@H](N)CN2C(=O)[C@@H](Cc2ccccc2)NC1=O` [listing 2 of 2 here], for which the MIC was determined as 32 µg/mL (≈ 27.3 µM) against Staphylococcus aureus [10] and 64 µg/mL (≈ 54.6 µM) in the data set on Escherichia coli [11].

`CC(C)C[C@@H]1NC(=O)[C@H](CCCN)NC(=O)[C@H](C(C)C)NC(=O)[C@@H]2C[C@@H](N[C@@H](Cc3ccccc3)C(=O)O)CN2C(=O)[C@@H](Cc2ccccc2)NC(=O)[C@H](CC(C)C)NC(=O)[C@H](CCCN)NC(=O)[C@H](C(C)C)NC(=O)[C@@H]2C[C@@H](N[C@@H](Cc3ccccc3)C(=O)O)CN2C(=O)[C@@H](Cc2ccccc2)NC1=O` [listing 1 of 2 here] gave a concentration for 50% haemolysis (HC50) at 0.5 h in data set [9] of 20 to 50 µg/mL.

Consider `CC(C)C[C@@H]1NC(=O)[C@H](CCCN)NC(=O)[C@H](C(C)C)NC(=O)[C@@H]2C[C@@H](N[C@@H](Cc3ccccc3)C(=O)O)CN2C(=O)[C@@H](Cc2ccccc2)NC(=O)[C@H](CC(C)C)NC(=O)[C@H](CCCN)NC(=O)[C@H](C(C)C)NC(=O)[C@@H]2C[C@@H](N[C@@H](Cc3ccccc3)C(=O)O)CN2C(=O)[C@@H](Cc2ccccc2)NC1=O` [listing 2 of 2 here], for which the MIC was 8 µg/mL (≈ 5.45 µM) against Staphylococcus aureus [10] and 16 µg/mL (≈ 10.9 µM) against Escherichia coli [11].

In turn, `CC(C)C[C@@H]1NC(=O)[C@H](CCCN)NC(=O)[C@H](C(C)C)NC(=O)[C@@H]2CCCN2C(=O)[C@@H](Cc2ccccc2)NC(=O)[C@H](CC(C)C)NC(=O)[C@H](CCCN)NC(=O)[C@H](C(C)C)NC(=O)[C@@H]2CCCN2C(=O)NC(=O)[C@H](Cc2ccccc2)NC(=O)[C@H](CCCN)NC1=O` registered an HC50 at 0.5 h in data set [12] of 90 to 100 µg/mL. Also, the MIC in the data set with Staphylococcus aureus [13] worked out at 3.13 µg/mL (≈ 2.41 µM); against Bacillus subtilis, 6.25 µg/mL (≈ 4.81 µM); in the data set with Escherichia coli [14] it was 25 µg/mL (≈ 19.3 µM); against Priestia megaterium, 3.13 µg/mL (≈ 2.41 µM); against Pseudomonas aeruginosa [15] it was 100 µg/mL (≈ 77 µM).
